Measured values: PMC5429603, “Discovery and characterization of verinurad, a potent and specific inhibitor of URAT1 for the treatment of hyperuricemia and gout” (Scientific Reports, 2017)
Where a chain is given by its changes, count along the chain named. Where two headings read alike, the source gives them in different places.

Key:
human URAT1 h-F241Y = molecular target: T1, human URAT1 h-F241Y (Homo sapiens, UniProt Q96S37, F241Y); experiment: URAT1 activity assay, h-F241Y; type: cell-based
T1 construct: expressed in transfected cells; host or cells: HEK-293T
T1 sequence (Q96S37 1-553 F241Y): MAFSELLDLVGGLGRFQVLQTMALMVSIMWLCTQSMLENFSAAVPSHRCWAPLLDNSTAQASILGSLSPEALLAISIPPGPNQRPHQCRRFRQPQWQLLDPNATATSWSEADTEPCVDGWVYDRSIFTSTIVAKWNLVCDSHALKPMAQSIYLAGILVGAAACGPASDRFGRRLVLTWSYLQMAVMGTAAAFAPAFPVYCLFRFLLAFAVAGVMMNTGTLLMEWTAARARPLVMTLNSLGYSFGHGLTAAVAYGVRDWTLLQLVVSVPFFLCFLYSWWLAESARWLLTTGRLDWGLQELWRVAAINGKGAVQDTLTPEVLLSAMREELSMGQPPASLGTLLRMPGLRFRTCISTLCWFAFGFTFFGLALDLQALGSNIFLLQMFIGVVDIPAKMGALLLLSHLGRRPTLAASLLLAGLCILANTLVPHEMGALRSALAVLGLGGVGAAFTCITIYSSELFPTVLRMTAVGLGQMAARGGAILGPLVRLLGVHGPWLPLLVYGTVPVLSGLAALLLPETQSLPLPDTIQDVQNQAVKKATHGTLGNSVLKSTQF
Description: (§1) Human URAT1 (GenBank BC053348.1, Homo sapiens SLC22A12), rat URAT1 (NCBI NM_001034943.1, Rattus norvegicus Slc22a12) and human OAT4 (NCBI NM_018484.2, Homo sapiens SLC22A11) genes were purchased from Origene Technologies, Inc. and subcloned into pCMV6/neo using NotI. Where indicated, controls transfections used pCMV6/neo. Mutants were produced by site-directed mutagenesis using the QuikChange Lightning Multi Site-Directed Mutagenesis Kit (Agilent Technologies). […] Mutagenic primer sequences are provided in ref. [15] and mutagenic primer sequences for previously unreported mutants shown in Supplementary Table 1. All constructs used in this study were untagged. Human OAT1 was purchased from Fisher Scientific (catalog # MHS1010–7508183 in pSPORT6, NCBI NM_153276.2, Homo sapiens SLC22A6).
(§2) HEK-293T cells were maintained in DMEM/high glucose/L-glutamine/HEPES supplemented with 1 mM sodium pyruvate (Life Technologies) and 10% FBS (PAA Laboratories) at 37 °C in 5% CO2. To express URAT1, OAT4 or OAT1, plasmids were reverse transfected into HEK-293T cells. DNA (10 µg) was mixed with 30 µl of DreamFect Gold (Boca Scientific) in 2 ml OptiMem (Life Technologies). After 20 minutes, 18 ml of media containing 2 × 10^7 cells in suspension was added and mixed, and 200 µl per well were plated onto white clear-bottomed poly-D-lysine coated 96-well plates (BD Biosciences). The cells were assayed the following day.
(§3) URAT1 and OAT4 activity assays were performed in assay buffer consisting of 25 mM MES pH 5.5 (from a 1 M MES solution [Sigma] adjusted to pH 5.5 with sodium hydroxide), 125 mM sodium gluconate, 4.8 mM potassium gluconate, 1.2 mM monobasic potassium phosphate, 1.2 mM magnesium sulfate, 1.3 mM calcium gluconate and 5.6 mM glucose. URAT1 inhibitors were serially diluted into assay buffer and added to the cells for 5 minutes prior to addition of substrate. URAT1-expressing cells were incubated with 100 µM ^14C-uric acid for 10 minutes and OAT4-expressing cells were incubated with 20 µM carboxyfluorescein (Life Technologies, Inc.) for 5 minutes. Cells were then washed three times in 25 mM MES pH 5.5/125 mM sodium gluconate, and solubilized in Ultima Gold (Perkin Elmer) prior to liquid scintillation counting. Each treatment was measured in triplicate.

human URAT1 h-F449Y = molecular target: T2, human URAT1 h-F449Y (Homo sapiens, UniProt Q96S37, F449Y); experiment: URAT1 activity assay, h-F449Y; type: cell-based
T2 construct: expressed in transfected cells; host or cells: HEK-293T
T2 sequence (Q96S37 1-553 F449Y): T1 sequence (Q96S37 1-553 F241Y) with Y241F, F449Y
Description: as §1, §2, §3

human URAT1 h-R477K = molecular target: T3, human URAT1 h-R477K (Homo sapiens, UniProt Q96S37, R477K); experiment: URAT1 activity assay, h-R477K; type: cell-based
T3 construct: expressed in transfected cells; host or cells: HEK-293T
T3 sequence (Q96S37 1-553 R477K): T1 sequence (Q96S37 1-553 F241Y) with Y241F, R477K
Description: as §1, §2, §3

human URAT1 [1] = molecular target: T4, human URAT1 (Homo sapiens, UniProt Q96S37); experiment: URAT1 activity assay (14C-uric acid transport), human URAT1; type: cell-based; set-up: host or cells: HEK-293T; settings: human URAT1 wild type in HEK-293T; 100 µM 14C-uric acid, pH 5.5; read-out: IC50, inhibition of transport activity
T4 sequence (Q96S37 1-553): T1 sequence (Q96S37 1-553 F241Y) with Y241F
Method: as §2, §3

human URAT1 [2] = molecular target: T4, human URAT1; experiment: URAT1 binding assay with 3H-verinurad, human URAT1 membranes; settings: for mode of inhibition of 3H-verinurad binding: human URAT1 membranes
Method: Membranes were prepared from cells transfected on the previous day with URAT1 expression constructs. Cells (5–10 × 10^8) were harvested in 1 ml ice-cold binding buffer (25 mM HEPES pH 7.3, 125 mM sodium gluconate) containing complete, EDTA-free protease inhibitor cocktail (Sigma). Cells were lysed with 100 strokes in a 2 ml dounce homogenizer using a tight-fitting “B” stem. Lysates were transferred to 1.5 mL Eppendorf tubes and centrifuged at 250 rcf for 5 minutes at 2 °C, and supernatants were transferred to fresh tubes and centrifuged again at 18,000 rcf for 20 minutes at 2 °C. The pellets (membrane fractions) were resuspended in 1 ml of ice-cold binding buffer containing protease inhibitors and frozen at −80 °C. Protein was measured using the Bio-Rad protein assay dye reagent concentrate.
Samples were then rapidly filtered through 25 mm glass fiber/1.2 µM PES 96-well filter plates (Corning FiltrEX 3510), and washed once with 200 µl ice-cold binding buffer. The plates were then subjected to scintillation counting. All samples were assayed in triplicate.
GraphPad Prism software was used for non-linear regression and statistical analyses. […] For kinetic measurements (K m and B max values), the “one site – specific binding” equation was used, after subtracting transport or binding measurements from control transfected cells. Statistical significance was assessed using Student’s unpaired t-tests.

Rat URAT1-N35S = molecular target: T5, Rat URAT1-N35S (Rattus norvegicus, UniProt Q3ZAV1, N35S); experiment: Uric acid transport kinetics, rat URAT1-N35S; type: cell-based
T5 construct: expressed in transfected cells; host or cells: HEK-293T

rat URAT1-Y365F [3] = molecular target: T6, rat URAT1-Y365F (Rattus norvegicus, UniProt Q3ZAV1, Y365F); experiment: Uric acid transport kinetics, rat URAT1-Y365F; type: cell-based
T6 construct: expressed in transfected cells; host or cells: HEK-293T
T6 sequence (Q3ZAV1 1-553 Y365F): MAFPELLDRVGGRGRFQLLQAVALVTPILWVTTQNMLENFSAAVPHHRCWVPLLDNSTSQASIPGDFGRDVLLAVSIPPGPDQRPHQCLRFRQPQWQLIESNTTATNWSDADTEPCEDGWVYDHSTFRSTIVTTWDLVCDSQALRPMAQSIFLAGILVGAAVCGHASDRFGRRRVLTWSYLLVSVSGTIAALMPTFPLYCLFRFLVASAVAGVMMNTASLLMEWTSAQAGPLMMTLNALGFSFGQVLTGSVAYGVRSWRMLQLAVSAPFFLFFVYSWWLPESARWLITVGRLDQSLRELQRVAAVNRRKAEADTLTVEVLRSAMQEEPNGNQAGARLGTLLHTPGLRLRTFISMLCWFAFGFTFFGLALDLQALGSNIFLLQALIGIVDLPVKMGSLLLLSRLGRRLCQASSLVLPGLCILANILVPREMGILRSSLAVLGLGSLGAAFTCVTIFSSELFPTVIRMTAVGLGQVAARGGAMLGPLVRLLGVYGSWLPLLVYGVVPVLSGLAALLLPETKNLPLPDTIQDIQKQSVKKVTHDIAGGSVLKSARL

Rat URAT1-N35S/Y365F = molecular target: T7, Rat URAT1-N35S/Y365F (Rattus norvegicus, UniProt Q3ZAV1, N35S/Y365F); experiment: Uric acid transport kinetics, rat URAT1-N35S/Y365F; type: cell-based
T7 construct: expressed in transfected cells; host or cells: HEK-293T
Method: as §2
as §3, with “Cells were then washed three times in 25 mM MES pH 5.5/125 mM sodium gluconate, and solubilized in Ultima Gold (Perkin Elmer) prior to liquid scintillation counting.” left out

rat URAT1 = molecular target: T8, rat URAT1 (Rattus norvegicus, UniProt Q3ZAV1); set-up: method as in Tan et al., 2016; settings: cited from earlier work
T8 construct: host or cells: HEK-293T
T8 sequence (Q3ZAV1 1-553): T6 sequence (Q3ZAV1 1-553 Y365F) with F365Y

rat URAT1-Y365F [4] = molecular target: T6, rat URAT1-Y365F; set-up: method as in Tan et al., 2016; settings: ref Tan et al., 2016; cited from earlier work
human URAT1 [5] = molecular target: T4, human URAT1; experiment: Uric acid transport kinetics, human URAT1; type: cell-based; set-up: host or cells: HEK-293T; settings: human URAT1 vs rat URAT1
Method: as §2
as §3, with “Cells were then washed three times in 25 mM MES pH 5.5/125 mM sodium gluconate, and solubilized in Ultima Gold (Perkin Elmer) prior to liquid scintillation counting.” left out

human URAT1 [6] = molecular target: T4, human URAT1; set-up: host or cells: HEK-293T; method as in Tan et al., 2016; settings: cited from earlier work
[7] = ref Tan et al., 2016, listed as urate

T5 sequence (Q3ZAV1 whole entry N35S): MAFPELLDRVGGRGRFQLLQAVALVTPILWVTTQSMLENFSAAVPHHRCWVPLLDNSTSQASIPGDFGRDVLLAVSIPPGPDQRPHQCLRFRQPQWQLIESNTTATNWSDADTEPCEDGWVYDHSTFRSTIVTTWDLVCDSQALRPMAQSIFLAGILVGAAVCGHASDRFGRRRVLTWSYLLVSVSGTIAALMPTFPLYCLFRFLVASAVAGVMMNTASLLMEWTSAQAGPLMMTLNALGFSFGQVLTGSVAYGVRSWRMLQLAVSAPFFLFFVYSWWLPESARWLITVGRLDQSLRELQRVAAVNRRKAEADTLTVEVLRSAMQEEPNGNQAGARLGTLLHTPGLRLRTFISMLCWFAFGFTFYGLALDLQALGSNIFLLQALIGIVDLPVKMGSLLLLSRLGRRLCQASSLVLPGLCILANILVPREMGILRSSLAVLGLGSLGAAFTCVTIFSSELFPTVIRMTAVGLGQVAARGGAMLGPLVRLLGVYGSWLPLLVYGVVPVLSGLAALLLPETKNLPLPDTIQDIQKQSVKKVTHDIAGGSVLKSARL
T7 sequence (Q3ZAV1 whole entry N35S/Y365F): as the sequence (Q3ZAV1 whole entry N35S) above, with Y365F counted along it

O=C1C(CC[S+]([O-])c2ccccc2)C(=O)N(c2ccccc2)N1c1ccccc1 (centres unmarked) [sulfinpyrazone, reference compound]
fold reduced affinity compared to human URAT1 (human URAT1 h-F241Y; h-F241Y): 7 fold | IC50 (human URAT1 h-F241Y; h-F241Y binding site point mutant): 23 µM | fold reduced affinity compared to human URAT1 (human URAT1 h-F449Y; h-F449Y): 3 fold | IC50 (human URAT1 h-F449Y; h-F449Y binding site point mutant): 9.7 µM | fold increased affinity compared to human URAT1 (human URAT1 h-R477K; h-R477K): 2 fold | IC50 (human URAT1 h-R477K; h-R477K binding site point mutant): 2 µM | IC50 (human URAT1 [1]): 3.4 µM | IC50 (human URAT1 [2]): 8.6 µM | Ki (human URAT1 [2]): 52 µM | mode of inhibition of 3H-verinurad binding (human URAT1 [2]): competitive mode of inhibition

CCc1oc2ccccc2c1C(=O)c1cc(Br)c(O)c(Br)c1 [benzbromarone, Benzbromarone]
mode of inhibition of 3H-verinurad binding (human URAT1 [2]): competitive mode of inhibition

O=c1[nH]c(=O)c2[nH]c(=O)[nH]c2[nH]1 [uric acid]
K m (µM), uric acid transport affinity (Rat URAT1-N35S; Rat URAT1-N35S): 697 ± 93 µM | urate affinity phenotype relative to rat URAT1 (Rat URAT1-N35S; rat URAT1-N35S): no phenotype | fold increase in urate affinity over rat URAT1 (rat URAT1-Y365F [3]): 1.5 fold | K m (µM), uric acid transport affinity (Rat URAT1-N35S/Y365F; Rat URAT1-N35S/Y365F): 222 ± 16 µM | fold increase in urate affinity relative to rat URAT1 (Rat URAT1-N35S/Y365F; rat URAT1-N35S/Y365F): ~4 fold | K m (µM), uric acid transport affinity (rat URAT1; [7]): 857 µM | K m (µM), uric acid transport affinity (rat URAT1; ref Tan et al., 2016): 857 ± 6 µM | K m (µM), uric acid transport affinity (rat URAT1-Y365F [4]): 560 ± 28 µM | fold higher affinity for urate of human URAT1 relative to rat URAT1 (human URAT1 [5]): 7 fold | K m (µM), uric acid transport affinity (human URAT1 [6]; [7]): 122 µM | K m (µM), uric acid transport affinity (human URAT1 [6]; ref Tan et al., 2016): 122 ± 3 µM

CCCN(CCC)S(=O)(=O)c1ccc(C(=O)O)cc1 [probenecid]
mode of inhibition of 3H-verinurad binding (human URAT1 [2]): competitive mode of inhibition
